Key:
[1] = test system: P3HR1 virus super-infection of Raji cells; experiment: EBV antibody neutralization assay; type: cell-based, Epstein-Barr virus; conditions: FIG. 2B, log10 dilutions of 0.01 to 10 μg/ml
Protocol: Antibody neutralization potency was measured as the inhibition of EBV early antigen (EA) expression upon super-infection of Raji cells by P3HR1 virus (33). Mixtures of concentrated virus (2×10^4 EA-inducing units) and serial dilutions of purified antibody were incubated in a final volume of 0.1 ml for 60 min at 37° C. prior to the addition of 5×10^4 Raji cells. The Raji cell-virus mixture was further incubated for 60 min at 37° C. followed by resuspension in RPMI medium and a 2-day incubation at 37° C. The number of Raji cells expressing EA after cell culture was measured by immunofluorescence, and relative antibody neutralization potency per μg of antibody was calculated.

[2] = test system: 72A1 antibody recognition of gp350 protein; experiment: Competition ELISA: 72A1 pre-incubated with gp350 mimetic peptides in solution, then tested for binding to gp350; design: species or system Epstein-Barr virus; conditions: for inhibition of 72A1 antibody recognition of gp350 protein: FIG. 4B, peptide allowed to interact with 72A1 in solution
Protocol: Whole cell ELISA was performed using CEM cells or CEM cells expressing gp350. The cells were washed with PBS, suspended at 1×10^6 cells/mL in PBS and 40 μL aliquots were added to each ELISA plate well. Plates were vacuum-dried prior to cell fixation with cold methanol. Plates were washed with PBS and wells blocked in 1% BSA:PBS prior to a 1 h exposure to monoclonal antibody or monoclonal antibody that was pre-incubated for 2 or more hours with gp350 mimetic peptides. Bound monoclonal antibodies were detected using biotin-conjugated goat anti-mouse IgG, HRP-conjugated streptavidin as outlined above.
Although peptide 3 contained the amino acid sequence EID shown by mutation to result in a loss of 72A1 binding (31), the lack of noted binding by peptide 3 may have been due to inappropriate adsorption to the ELISA plate that interfered with antibody binding. To avoid potential ELISA plate interference, gp350 mimetic peptides were allowed to interact with 72A1 antibody in solution, and later the antibody was tested for its ability to bind to native gp350 protein.

[3] = test system: anti-gp350 monoclonal antibody 72A1; experiment: Peptide ELISA: 72A1 antibody binding to plate-coated gp350 mimetic peptides; design: species or system murine; conditions: for binding to the 72A1 antibody: FIG. 4A, peptide coated on ELISA plate; for Notes: reactivity with the 72A1 monoclonal antibody: Table III
Protocol: (§1) Gp350 mimetic peptides that were synthesized and HPLC purified to >70% (Elim Biopharmaceuticals®, Hayward, Calif.) were suspended at 2.5 μg/mL in 0.1M carbonate buffer pH 9 prior to their overnight incubation at 4° C. as 100 μL aliquots in a 96 well ELISA plate (Ultident®, St. Laurent, QC). Peptide-coated plates were washed 4× with PBS:0.05% Tween-20®, blocked with 1% BSA:PBS and incubated for a minimum of 2 h at room temperature (RT) with anti-gp350 monoclonal antibody 72A1, or the isotype-matched, background-control anti-LMP1 monoclonal antibody S-12 and 1:100 dilutions of commercial intravenous gamma globulin (IVIG) (18). Bound monoclonal antibodies were detected using biotin-conjugated goat anti-mouse IgG, biotin-conjugated anti-human IgG and horseradish peroxidase (HRP)-conjugated streptavidin (Jackson Immunoresearch Laboratories®, West Grove, Pa.) in conjunction with 3,3′,5,5′-Tetramethylbenzidine substrate (TMB solution, Bioshop®, Burlington ON). HRP enzyme activity was stopped with an equal volume of 1N HCl and wells read at 450nm.

[4] = test system: 72A1 recognition of gp350; experiment: Sera from peptide-immunized mice blocking biotinylated-72A1 binding to gp350; type: in vivo, Balb/C female mice; conditions: FIG. 7C, pooled serum from peptide immunized mice, 1:50 dilution
Protocol: Histogram of biotinylated-72A1 binding to gp350 protein that was pre-exposed to mouse preimmune (preimm) serum, pooled serum from peptide immunized mice (1:50 dilution), or 1 μg/ml 72A1, or 0.5 mg/ml BSA. Average OD±SEM was derived from three separate experiments. P-values≤0.05 are indicated (*).
(§2) Balb/C female mice were immunized intraperitoneally with 100 μg of keyhole limpet hemocyanin (KLH)-coupled with gp350 mimetic peptide (Sigma Conjugation Kit) emulsified in Sigma Adjuvant System (Sigma-Aldrich). Mice were re-injected every 21 days and blood was drawn 14 days after the second injection. Following the third immunization, IgG levels of peptide reactivity were measured by ELISA.
(§3) Balb/C female mice were immunized intraperitoneally with gp350 mimetic peptides as described in Example 1 above. Following the third immunization, IgG levels of peptide reactivity were measured by ELISA. All mice generated antibodies to their respective peptides with average antibody concentrations (pg/ml) of 97±46 SEM, 122±67 and 981±577 for p1, p2 and p3, respectively (FIG. 7A).

native gp350 = experiment: Peptide immunization of mice: serum recognition of native gp350; type: in vivo, Balb/C female mice; conditions: FIG. 7B, same mice sera, ± SEM
Protocol: as §2, §3

[5] = Peptide immunization of mice: anti-peptide IgG by ELISA; type: in vivo, Balb/C female mice; conditions: FIG. 7A, KLH-coupled peptide 100 μg i.p., after third immunization, ± SEM
Protocol: as §2, §3

[6] = test system: human IgG (IVIG, human EBV immune serum); experiment: Peptide ELISA with commercial intravenous gamma globulin (IVIG); type: binding; conditions: FIG. 5, thirty-nine lots of IVIG, ± SD
Protocol: as §1
Although p2 was recognized by the murine monoclonal antibody 72A1 and was capable of generating antibodies that recognized the gp350 neutralizing epitope in mice, it is unknown whether EBV-positive human sera would recognize this gp350 mimetic peptide. The determination of human IgG reactivity against each of the three peptides could serve as a surrogate indicator of whether the gp350 mimetic peptides would be immunogenic or capable of generating an anti-gp350 antibody response. […] This was followed by p1 at levels of 1.83±0.07 pg/ml and by p3 with antibody levels of 1.7±0.06 pg/ml.

[7] = FIG. 4C, altered domain compared to peptide 2

Substance | average antibody concentration recognizing native gp350 (native gp350) [pg/mL] | binding to the 72A1 antibody [3] | average anti-peptide antibody concentration [5] [pg/mL] | anti-peptide antibody levels in IVIG [6] [pg/mL] | further results
72A1 antibody: well-known mouse monoclonal antibody (IgG1 isotype), EBV gp350 neutralizing, commercially available |  |  |  |  | block of P3HR1 EBV super-infection of Raji cells [1]: block P3HR1 virus superinfection of Raji cells
AAAAAAAAQNPVYLIPETVPYIKWDN (SEQ ID NO: 33) (Epstein-Barr virus) [Peptide 2.2, Ala substitution of domain 1 of peptide 2] |  |  |  |  | reduction in recognition of p2 by 72A1 antibody [2, 7]: 50%; binding activity compared to parental peptide 2 ([3]; FIG. 6B, peptide 2 = 100%): 56%
DDRTLQLAAAPVAALIPAVVPAIAWAA (SEQ ID NO: 34) (Epstein-Barr virus) [Peptide 2.3, Domain 1-LA-altered Domain 2] |  |  |  |  | recognition of p2 by 72A1 antibody after domain alteration [2, 7]: abolished recognition; binding to the 72A1 monoclonal antibody ([3]; FIGS. 6A and 6B, alanine substitutions): did not bind
DDRTLQLAQNPVYLIPETVPYIKWDN (SEQ ID NO: 4) (Epstein-Barr virus) [Peptide 2] | 1.3 ± 0.9 | strongly bound | 122 ± 67 | 2.16 ± 0.08 | inhibition of 72A1 recognition of gp350 by antisera [4]: 38%; inhibition of 72A1 antibody recognition of gp350 protein [2]: 78%
EEKSAEAAQQPADAAPDSAPDAKMDQ (SEQ ID NO: 32) (Epstein-Barr virus) [Peptide 2.1, 72a1 positive mimeotope] |  |  |  |  | Notes: reactivity with the 72A1 monoclonal antibody [3]: 72a1 positive
GSAKPGNGSYFASVKTEMLGNEID (SEQ ID NO: 27) (Epstein-Barr virus) [Peptide 3, gp350 mimetic peptide encompassing the central area of the purported gp350 neutralizing domain] | 4.1 ± 2.4 | did not bind | 981 ± 577 | 1.7 ± 0.06 | inhibition of 72A1 recognition of gp350 by antisera [4]: 23%; inhibition of 72A1 antibody recognition of gp350 protein [2]: 8%
SKAPESTTTSPTLNTTGFADY (SEQ ID NO: 31) (Epstein-Barr virus) [Peptide 1, reference compound] | 0.015 ± 0.01 | did not bind | 97 ± 46 | 1.83 ± 0.07 | ELISA activity with 72A1 ([3]; FIG. 6A, value subtracted from the peptide 2 series before plotting): 0.355 OD; Notes: reactivity with the 72A1 monoclonal antibody [3]: 72A1 non-reactive

From US10016494B2, “Antigenic epitopes from EBV gp350/220 and uses thereof” (VALORISATION-HSJ, LIMITED PARTNERSHIP, priority 2014, dated 2018)
